Assay results as given in patent EP1565179B1, “COMPOSITION COMPRISING A CARBAMIC ACID DERIVATIVE, ITS USE AS COSMETIC AND MEDICINE” (Laboratoires Expanscience, priority 2002, dated 2004).

How the values were obtained:
[1] = test system: cellules dendritiques générées in vitro à partir de précurseurs CD34+ issus de sang de cordon; assay: Migration of hapten BB-sensitised in vitro generated dendritic/Langerhans cells through Matrigel in a two-compartment culture chamber; assay type: cell-based
Protocol: Des cellules mononuclées ont été obtenues à partir de sang de cordon ombilical de donneurs sains, par centrifugation sur Ficoll. Les cellules CD34+ ont ensuite été purifiées par immunosélection à l'aide d'anticorps spécifique et de billes magnétiques (Miltenyi Biotech, Allemagne). Les cellules CD34+ ont été cultivées en présence de GM-CSF (100 ng/ml), TNF-α (2,5 ng/ml) en RPMI additionné de 10% sérum de veau foetal, pendant 5 jours. L'addition de TGF-β1, facteur qui favorise la différenciation des cellules vers la voie cellules de Langerhans, a été réalisée au cinquième jour de culture.
Le milieu de base choisi pour l'ensemble de l'étude a été le RPMI 1640 (Gibco BRL, France). Le composé A fourni par EXPANSCIENCE, à la concentration de 10^-2 M en solution dans du DMSO (Diméthyl Sulfoxide), a été dilué en RPMI-1640 et testé à 1 µM.
Les cellules ont été traitées, au septième jour, par l'haptène BB (Base de Brandowski, 1,17 µg/ml), pendant 24 h, puis soumises au test de migration.
Un système de chambre de culture à deux compartiments (Falcon, Becton Dickinson, France) a été utilisé. Le compartiment supérieur est séparé du compartiment inférieur par une membrane de porosité 8 µm, sur laquelle sont déposées 50 µg/cm^2 de Matrigel. […]

[2] = test system: cellules de Langerhans (CL) et cellules dendritiques (CD); assay: Migration of skin dendritic cells (FITC+) to draining lymph nodes in mice after topical FITC hapten application; assay type: in vivo, souris; settings: 0,5% topical formulation on mouse ears twice daily for 4 days; 1,5% FITC; lymph nodes analysed 24 h later
Source text: Le FITC (Fluorescéine isothiocyanate, Sigma, St. Louis, MO) a été dilué extemporanément dans un mélange acétone: dibutylphthalate (1:1).
L'acide carbamique A (acide 1-Hydroxyméthyl-tridécyl carbamique) et le LU105 (LU 105 est un inhibiteur de MMPs, correspondant à un extrait peptidique de lupin blanc commercialisé par la Société Expanscience sous le nom de marque Actimp 193®) ont été fournis par les "Laboratoires Expanscience", et formulés seuls ou en association dans un véhicule inerte compatible avec une application topique tel que décrit à l'exemple 1 ci-dessus [Acide carbamique A (0,5%) ± LU105 (2%)]. Les différentes formulations ont été appliquées sur les oreilles de souris deux fois par jour pendant 4 jours consécutifs. Trois heures après la dernière application, 1,5% de FITC sont appliqués sur les deux oreilles (l'une traitée et l'autre non traitée (Contrôle)).
L'effet des deux molécules a été évalué in vivo chez la souris. La peau des deux oreilles est badigeonnée avec 1,5% FITC (2X5 µl). 24 h après, les souris sont sacrifiées et une suspension cellulaire est préparée à partir des ganglions auriculaires et cervicaux (ganglions drainants, ci-après dénommés GL) ou à partir des ganglions popliteaux (ganglions non drainants, contrôle négatif). Les tissus ont été découpés et les cellules sont séparées par filtration (filtre […], Falcon; Becton Dickinson), puis lavés. […]

SMILES: CCCCCCCCCCCCC(CO)NC(=O)O (stereo not drawn) [Composé A, (1-Hydroxyméthyl-tridécyl)-acide carbamique]
- Pourcentage de cellules dendritiques générées in vitro ayant migré ([1]; 1 µM, cells sensitised with hapten BB (1,17 µg/ml, 24 h), 18 h incubation at 37°C, BB-only control 20): 15%
- inhibition at 1 µM ([1]; read-out: inhibition de la migration des cellules dendritiques générées in vitro et activées par l'haptène BB): 25%
- Inhibition de la migration en % [2]: 25%
